In US20100210533A1, “USE OF UROCORTIN AND CORTICOTROPIN-RELEASING FACTOR AS THERAPEUTIC AGENTS” (priority 2007, published 2010):
No end group written: not given here.

Legend:
[1] = system: HIV-1IIIB; test: HIV-1 antiviral assay in CEM-SS cells (MTS readout); assay type: cell-based
[2] = system: HCMV strain AD169; test: HCMV plaque assay in MRC-5 cells; details: for inhibition of HCMV plaque formation as compared to the virus control experiment: 10 micrograms per ml, 7-10 days
[3] = system: spleen cells; test: Th1/Th2 cytokine profiling assay (Ovalbumin-restimulated spleen cells, CBA kit); assay type: cell-based; details: 10 micrograms per ml; spleen cells of Ovalbumin-immunized Balb/c mice, restimulated with Ovalbumin 10 micrograms/ml; 72 hours
[4] = system: RAW 264.7 cells; test: Phagocytosis assay (Fluorescein-labeled Escherichia coli, flow cytometry); assay type: cell-based, mouse; details: 10 micrograms per ml, 30 min preincubation, 60 min ingestion
[5] = system: Primary Human endothelial cells (HUVEC); test: Endothelial cell migration assay; assay type: cell-based; details: 10 micrograms per ml, 22 hours
[6] = system: hepatitis B virus (HBV) ayw strain; test: HBV experimental assay system, HepG2-2.2.15, TaqMan PCR of secreted HBV DNA; assay type: cell-based; details: 10 micrograms per ml, six days, HBV DNA by TaqMan PCR
Text: HepG2-2.2.15 is a stable cell line containing the hepatitis B virus (HBV) ayw strain genome (ATCC Cat. No. CRL-11997). Antiviral compounds blocking any late step of viral replication such as transcription, translation, pregenome encapsidation, reverse transcription, particle assembly and release can be identified and characterized using this cell line. In this assay, an active compound will reduce the production of secreted HBV from cells, measured by utilizing real time quantitative PCR (TaqMan) assay to directly and accurately measure HBV DNA copies.
HepG2-2.2.15 cells were plated in 96-well microtiter plates. After 16-24 hours the confluent monolayer of HepG2-2.2.15 cells was washed and the medium was replaced with complete medium containing test peptides—10 micrograms per ml—in duplicate. […] Six days following the initial administration of the peptides, the cell culture supernatants was collected, treated with pronase and DNAse and then used in a real-time quantitative TaqMan PCR assay. The PCR-amplified HBV DNA was detected in real-time by monitoring increases in fluorescence signals that result from the exonucleolytic degradation of a quenched fluorescence probe molecule that hybridizes to the mplified HBV DNA. […] Antiviral activity was calculated from the reduction in HBV DNA levels (% virus control). […]

Molecule	antiviral activity of positive control compounds (HIV-1) [1]	antiviral activity of positive control compound (HCMV) ([2]; positive control, HCMV AD169)	inhibition of HCMV plaque formation as compared to the virus control experiment [2]	IFNγ spleen cells; TH1 response (% of control) [3]	IL-2 spleen cells (% of control) [3]	IL-4 spleen cells; TH2 response (% of control) [3]	IL-5 spleen cells; TH2 response (% of control) [3]	TNF-a spleen cells; TH1 response (% of control) [3]	effect (increase) on the phagocytic activity of murine macrophages [4]	inhibition of the tube formation of human endothelial cells (results given under Example 14, Endothelial Cell Migration Assay) [5]	inhibition of HBV replication as compared to the virus control infection [6]
Cc1cn([C@H]2C[C@H](N=[N+]=[N-])[C@@H](CO)O2)c(=O)[nH]c1=O [AZT]	expected levels of antiviral activity	–	–	–	–	–	–	–	–	–	–
Nc1nc(O)c2ncn(COC(CO)CO)c2n1 [Ganciclovir, reference compound]	–	expected levels of antiviral activity	–	–	–	–	–	–	–	–	–
CC(C)(C)NC(=O)[C@@H]1CN(Cc2cccnc2)CCN1C[C@@H](O)C[C@@H](Cc1ccccc1)C(=O)N[C@H]1c2ccccc2C[C@H]1O [indinavir]	expected levels of antiviral activity	–	–	–	–	–	–	–	–	–	–
Asp-Asn-Pro-Ser-Leu-Ser-Ile-Asp-Leu-Thr-Phe-His-Leu-Leu-Arg-Thr-Leu-Leu-Glu-Leu-Ala-Arg-Thr-Gln-Ser-Gln-Arg-Glu-Arg-Ala-Glu-Gln-Asn-Arg- Ile-Ile-Phe-Asp-Ser-Val-NH2 (DNPSLSIDLTFHLLRTLLELARTQSQRERAEQNRIIFDSV-NH2) [Peptide 1, Urocortin; commercially available known peptide]	–	–	did not inhibit	29.0 % of control	168.1 % of control	111.6 % of control	68.0 % of control	84.8 % of control	no inhibitory or activating effects	39%	63.0%
Ser-Glu-Glu-Pro-Pro-Ile-Ser-Leu-Asp-Leu-Thr-Phe-His-Leu-Leu-Arg-Glu-Val-Leu-Glu-Met-Ala-Arg-Ala-Glu-Gln-Leu-Ala-Gln-Gln-Ala-His-Ser-Asn- Arg-Lys-Leu-Met-Glu-Ile-Ile-NH2 (SEEPPISLDLTFHLLREVLEMARAEQLAQQAHSNRKLMEII-NH2) [Peptide 2, Corticotropin-Releasing Factor; commercially available known peptide]	–	–	did not inhibit	144.1 % of control	166.5 % of control	178.1 % of control	7.0 % of control	138.1 % of control	34.3%	did not inhibit	57.2%
